Assay type in all cases: in vivo
A short description of assay [1]: Experiment 6 sensory evaluation of cyclic dipeptides, “top sharp saltiness”. As for the experimental part:
(§1) An aqueous solution in which the concentration of each of the cyclic dipeptides shown in the table described below is set to be the same as its concentration in the heat-treated coriander prepared in 1.1. described above, as estimated from the ratio of the peak area of the cyclic dipeptides to the peak area of the internal standard (47 μg/g of L-lysine-^13C6 monohydrochloride) (hereinafter referred to as “heat-treated coriander equivalent aqueous solution”) was prepared. An aqueous solution in which the concentration of each of the cyclic dipeptides is set to be the same as its concentration in the heat-treated paprika of Example 203 prepared in 2.1 described above (hereinafter referred to as “heat-treated paprika equivalent aqueous solution”) was also prepared. Cyclic dipeptides prepared by the applicant were used in this experiment. As a cyclic dipeptide comprising Leu/Ile, a mixture comprising equal parts of cyclic dipeptide comprising Leu and cyclic dipeptide comprising Ile was used.
(§2) Common and reduced-sodium curry rouxes were prepared according to the procedures described in (1) and (2) of 1.3. described above.
(§3) Two dispersions of 44 g of the aforesaid reduced-sodium curry roux dispersed in 300 g of hot water were prepared. To one of them was added the heat-treated coriander equivalent solution or heat-treated paprika equivalent aqueous solution of the individual cyclic dipeptides shown in the table described below so as to be in the final concentration of 0.5% (w/w) or 1.0% (w/w), respectively.
(§4) Forty-four grams of the aforesaid common curry roux was dispersed in 300 g of hot water.
(§5) The dispersion of reduced-sodium curry roux dispersed in hot water and the dispersion of common curry roux dispersed in hot water were used as comparative controls, and the strength of the flavor was evaluated by three evaluators on the basis of the following evaluation criteria from the viewpoint of “top sharp saltiness”, “middle fullness (enhanced thickness) and “boosting of last flavor (aftertaste).”
(§6) The average of the evaluated scores was defined as “F” when it was 1.0 or lower, “C” when it was 1.1 or higher and 1.9 or lower, “B” when it was 2.0 or higher and 2.5 or lower, “A” when it was 2.6 or higher and 2.9 or lower, and “AA” when it was 3.0 or higher.
(§7) In the table described below, “ID” refers to the compound ID described above. The items of “coriander 0.5%” and “coriander 1.0%” refer to the addition of the aforesaid heat-treated coriander equivalent aqueous solution of cyclic dipeptide so that the final concentrations may be 0.5% (w/w) and 1.0% (w/w), respectively. The items of “paprika 0.5%” and “paprika 1.0%” refer to the addition of the aforesaid heat-treated paprika equivalent aqueous solution of cyclic dipeptide so that the final concentration may be 0.5% (w/w) and 1.0% (w/w), respectively.

Assay [2] can be described thus: Experiment 6 sensory evaluation of cyclic dipeptides, “middle fullness (enhanced thickness)”. The protocol: as §1, §2, §3, §4, §5, §6, §7
Assay [3] is described as follows: Experiment 6 sensory evaluation of cyclic dipeptides, “boosting of last flavor (aftertaste)”. As for the experimental part:
as §1, §2, §3, §4, §5, §6, §7

Setting [4] is: Additive amount coriander 0.5% (heat-treated coriander equivalent aqueous solution, final 0.5% (w/w)), reduced-sodium curry roux.
The mark [5] stands for this setting: Additive amount coriander 0.5%, reduced-sodium curry roux.
[6] abbreviates: heat-treated coriander equivalent aqueous solution of cyclic dipeptide, final 1.0% (w/w) in reduced-sodium curry roux dispersion.
Setting [7] is: heat-treated coriander equivalent aqueous solution of cyclic dipeptide, final 1.0% (w/w) in reduced-sodium curry roux dispersion, 3 evaluators.
[8] abbreviates: Additive amount paprika 0.5% (heat-treated paprika equivalent aqueous solution, final 0.5% (w/w)), reduced-sodium curry roux.
[9] abbreviates: Additive amount paprika 0.5%, reduced-sodium curry roux.
The mark [10] stands for this setting: heat-treated paprika equivalent aqueous solution of cyclic dipeptide, final 1.0% (w/w) in reduced-sodium curry roux dispersion.
Setting [11] is: heat-treated paprika equivalent aqueous solution of cyclic dipeptide, final 1.0% (w/w) in reduced-sodium curry roux dispersion, 3 evaluators.

In the case of cyclic (Ala-Arg) [Coriander ID 11], the figures for the “Top sharp saltiness Average” value in assay [1] (setting [4]) and in assay [1] (setting [7]) were 2.0 points and 2.2 points, respectively. In addition, the “Top sharp saltiness Evaluation” value in assay [1] (setting [5]) is “B (“B” when it was 2.0 or higher and 2.5 or lower)”; in assay [1] (setting [6]) it was “B (“B” when it was 2.0 or higher and 2.5 or lower)”. Moreover, the “Middle fullness Average” value in assay [2] (setting [5]) was found to be 1.8 points; in assay [2] (setting [7]), 2.7 points. For the same substance, the “Middle fullness Evaluation” value in assay [2] (setting [5]) is “C (“C” when it was 1.1 or higher and 1.9 or lower)”; in assay [2] (setting [6]), “B (“B” when it was 2.0 or higher and 2.5 or lower)”. The results for the “Bosting of last flavor Average” value in assay [3] (setting [5]) and in assay [3] (setting [7]) were 1.8 points and 2.7 points, respectively. In addition, the “Bosting of last flavor Evaluation” value in assay [3] (setting [5]) was “B (“B” when it was 2.0 or higher and 2.5 or lower)”; in assay [3] (setting [6]) it was “A (“A” when it was 2.6 or higher and 2.9 or lower)”.

As to cyclic (Ala-Asn) [Coriander ID 56], the “Top sharp saltiness Average” value in assay [1] (setting [4]) was 2.3 points; in assay [1] (setting [7]), 2.0 points. Besides, the “Top sharp saltiness Evaluation” value in assay [1] (setting [5]) is “B (“B” when it was 2.0 or higher and 2.5 or lower)”; in assay [1] (setting [6]) it was “B (“B” when it was 2.0 or higher and 2.5 or lower)”. The “Middle fullness Average” value in assay [2] (setting [5]) was found to be 2.3 points; in assay [2] (setting [7]) it was 2.7 points. Besides, the “Middle fullness Evaluation” value in assay [2] (setting [5]) is “B (“B” when it was 2.0 or higher and 2.5 or lower)”; in assay [2] (setting [6]), “A (“A” when it was 2.6 or higher and 2.9 or lower)”. Moreover, the “Bosting of last flavor Average” value in assay [3] (setting [5]) is recorded as 2.3 points; in assay [3] (setting [7]), 2.5 points. The “Bosting of last flavor Evaluation” value in assay [3] (setting [5]) is “B (“B” when it was 2.0 or higher and 2.5 or lower)”; in assay [3] (setting [6]), “B (“B” when it was 2.0 or higher and 2.5 or lower)”.

With cyclic (Ala-Asp) [Coriander ID 58], the “Top sharp saltiness Average” value in assay [1] (setting [8]) and in assay [1] (setting [11]) was 3.0 points throughout. Moreover, the “Top sharp saltiness Evaluation” value in assay [1] (setting [9]) and in assay [1] (setting [10]) was “AA (“AA” when it was 3.0 or higher)” throughout. Further, the “Middle fullness Average” value in assay [2] (setting [9]) was determined as 3.3 points; in assay [2] (setting [11]), 3.0 points. Moreover, the “Middle fullness Evaluation” value in assay [2] (setting [9]) and in assay [2] (setting [10]) was “AA (“AA” when it was 3.0 or higher)” each time. Further, the “Bosting of last flavor Average” value in assay [3] (setting [9]) and in assay [3] (setting [11]) was 3.2 points each time. For the same substance, the “Bosting of last flavor Evaluation” value in assay [3] (setting [9]) and in assay [3] (setting [10]) was “AA (“AA” when it was 3.0 or higher)” in each case.

Take cyclic (Ala-His) [Coriander ID 10]: the “Top sharp saltiness Average” value is given as 2.7 points in assay [1] (setting [4]) and 2.3 points in assay [1] (setting [7]). The “Top sharp saltiness Evaluation” value in assay [1] (setting [5]) is “A (“A” when it was 2.6 or higher and 2.9 or lower)”; in assay [1] (setting [6]) it was “B (“B” when it was 2.0 or higher and 2.5 or lower)”. Also, the “Middle fullness Average” value in assay [2] (setting [5]) is recorded as 3.2 points; in assay [2] (setting [7]), 3.3 points. Also, the “Middle fullness Evaluation” value in assay [2] (setting [5]) and in assay [2] (setting [6]) was “AA (“AA” when it was 3.0 or higher)” throughout. The “Bosting of last flavor Average” value in assay [3] (setting [5]) came to 3.3 points; in assay [3] (setting [7]), 3.7 points. In addition, the “Bosting of last flavor Evaluation” value in assay [3] (setting [5]) and in assay [3] (setting [6]) was “AA (“AA” when it was 3.0 or higher)” each time.

cyclic (Ala-Tyr) [Coriander ID 26]: the entries for the “Top sharp saltiness Average” value in assay [1] (setting [4]) and in assay [1] (setting [7]) were 2.2 points and 1.3 points, respectively. The “Top sharp saltiness Evaluation” value is “B (“B” when it was 2.0 or higher and 2.5 or lower)” in assay [1] (setting [5]); “C (“C” when it was 1.1 or higher and 1.9 or lower)” in assay [1] (setting [6]). Further, the “Middle fullness Average” value in assay [2] (setting [5]) is on record as 2.3 points; in assay [2] (setting [7]) it was 2.2 points. The “Middle fullness Evaluation” value in assay [2] (setting [5]) is “B (“B” when it was 2.0 or higher and 2.5 or lower)”; in assay [2] (setting [6]), “B (“B” when it was 2.0 or higher and 2.5 or lower)”. The entries for the “Bosting of last flavor Average” value in assay [3] (setting [5]) and in assay [3] (setting [7]) were 2.2 points and 2.3 points, respectively. The “Bosting of last flavor Evaluation” value in assay [3] (setting [5]) is “B (“B” when it was 2.0 or higher and 2.5 or lower)”; in assay [3] (setting [6]) it was “B (“B” when it was 2.0 or higher and 2.5 or lower)”.

With cyclic (Arg-Leu/Ile) [Coriander ID 22], the “Top sharp saltiness Average” value in assay [1] (setting [4]) came out at 2.6 points; in assay [1] (setting [7]), 2.0 points. Besides, the “Top sharp saltiness Evaluation” value in assay [1] (setting [5]) was “A (“A” when it was 2.6 or higher and 2.9 or lower)”; in assay [1] (setting [6]), “B (“B” when it was 2.0 or higher and 2.5 or lower)”. Also, the figures for the “Middle fullness Average” value in assay [2] (setting [5]) and in assay [2] (setting [7]) were 2.6 points and 2.5 points, respectively. Moreover, the “Middle fullness Evaluation” value in assay [2] (setting [5]) is “A (“A” when it was 2.6 or higher and 2.9 or lower)”; in assay [2] (setting [6]), “B (“B” when it was 2.0 or higher and 2.5 or lower)”. Also, the “Bosting of last flavor Average” value in assay [3] (setting [5]) is reported as 2.7 points; in assay [3] (setting [7]), 2.8 points. The “Bosting of last flavor Evaluation” value in assay [3] (setting [5]) is “A (“A” when it was 2.6 or higher and 2.9 or lower)”; in assay [3] (setting [6]) it was “A (“A” when it was 2.6 or higher and 2.9 or lower)”.

cyclic (Glu-Arg) [Coriander ID 8]: the “Top sharp saltiness Average” value in assay [1] (setting [8]) is given as 1.8 points; in assay [1] (setting [11]), 2.2 points. In addition, the “Top sharp saltiness Evaluation” value is “C (“C” when it was 1.1 or higher and 1.9 or lower)” in assay [1] (setting [9]); “B (“B” when it was 2.0 or higher and 2.5 or lower)” in assay [1] (setting [10]). For the same substance, the “Middle fullness Average” value in assay [2] (setting [9]) came out at 2.2 points; in assay [2] (setting [11]), 2.5 points. The “Middle fullness Evaluation” value in assay [2] (setting [9]) was “B (“B” when it was 2.0 or higher and 2.5 or lower)”; in assay [2] (setting [10]), “B (“B” when it was 2.0 or higher and 2.5 or lower)”. In addition, the “Bosting of last flavor Average” value worked out at 2.7 points in assay [3] (setting [9]) and 2.3 points in assay [3] (setting [11]). Also, the “Bosting of last flavor Evaluation” value was “A (“A” when it was 2.6 or higher and 2.9 or lower)” in assay [3] (setting [9]); “B (“B” when it was 2.0 or higher and 2.5 or lower)” in assay [3] (setting [10]).

For the substance cyclic (Glu-Asp) [Coriander ID 12], the “Top sharp saltiness Average” value in assay [1] (setting [8]) came out at 1.8 points; in assay [1] (setting [11]) it was 1.5 points. The “Top sharp saltiness Evaluation” value in assay [1] (setting [9]) was “C (“C” when it was 1.1 or higher and 1.9 or lower)”; in assay [1] (setting [10]), “C (“C” when it was 1.1 or higher and 1.9 or lower)”. Moreover, the “Middle fullness Average” value in assay [2] (setting [9]) is 2.7 points; in assay [2] (setting [11]), 2.0 points. Besides, the “Middle fullness Evaluation” value in assay [2] (setting [9]) was “A (“A” when it was 2.6 or higher and 2.9 or lower)”; in assay [2] (setting [10]), “B (“B” when it was 2.0 or higher and 2.5 or lower)”. Moreover, the “Bosting of last flavor Average” value in assay [3] (setting [9]) is 2.3 points; in assay [3] (setting [11]), 2.0 points. Also, the “Bosting of last flavor Evaluation” value in assay [3] (setting [9]) is “B (“B” when it was 2.0 or higher and 2.5 or lower)”; in assay [3] (setting [10]), “B (“B” when it was 2.0 or higher and 2.5 or lower)”.

Source of the values: patent US20260231994A1, “TASTE-ENHANCING COMPOSITION, METHOD FOR PRODUCING SAME, FOOD PRODUCT, AND METHOD FOR ENHANCING TASTE OF FOOD PRODUCT” (HOUSE FOODS GROUP INC., priority 2023, published 2026).
